From patent US20060105008A1, “Compositions and methods for reducing vaginal pH” (priority 2002, published 2006)
In brackets after ≈: the same amount, converted by molar mass. Like-named read-outs stand apart in the source and are kept apart here.

How the values were obtained:
Test in all cases: In vitro evaluation of azole compounds, MIC
Format in all cases: cell-based
[1] = test system: Lactobacillus species; settings: read-out: MIC's of drug needed to inhibit the growth of organism
[2] = test system: Bacillus theta; settings: read-out: MIC's of drug needed to inhibit the growth of organism
[3] = test system: Lactobacillus acidophilus; settings: one table line per isolate; for MIC: read-out: MIC's of drug needed to inhibit the growth of organism
[4] = test system: Prevotella melaninogenica; settings: one table line per isolate; for MIC: read-out: MIC's of drug needed to inhibit the growth of organism
[5] = test system: Prevotella intermedia; settings: one table line per isolate; for MIC: read-out: MIC's of drug needed to inhibit the growth of organism
[6] = test system: Lactobacillus plantarum; settings: Lactiplantibacillus plantarum, read-out: MIC's of drug needed to inhibit the growth of organism
[7] = test system: Bacillus fragilis; settings: read-out: MIC's of drug needed to inhibit the growth of organism
[8] = test system: Mobiluncus mulieris; settings: read-out: MIC's of drug needed to inhibit the growth of organism
[9] = test system: Gardnerella vaginalis; settings: one table line per isolate, read-out: MIC's of drug needed to inhibit the growth of organism
[10] = test system: Peptostreptococcus asaccharolyticus; settings: Peptoniphilus asaccharolyticus, one table line per isolate, read-out: MIC's of drug needed to inhibit the growth of organism
[11] = test system: Prevotella bivia; settings: one table line per isolate; for MIC: read-out: MIC's of drug needed to inhibit the growth of organism
[12] = test system: Peptostreptococcus magnus; settings: Finegoldia magna, one table line per isolate, read-out: MIC's of drug needed to inhibit the growth of organism
[13] = test system: Peptostreptococcus tetradius; settings: for MIC: Anaerococcus tetradius, read-out: MIC's of drug needed to inhibit the growth of organism
[14] = test system: Prevotella disiens; settings: one table line per isolate; for MIC: read-out: MIC's of drug needed to inhibit the growth of organism
[15] = Peptostreptococcus tetradius, one table line per isolate

| SMILES | MIC [1] | MIC [2] | MIC [3] | MIC [4] | MIC [5] | MIC [6] | MIC [7] | MIC [8] | MIC [10] | MIC [11] | MIC [12] | MIC [14] | MIC [13, 15] | MIC's of drug needed to inhibit the growth of organism [13, 15] | MIC's of drug needed to inhibit the growth of organism [5] | other results |
| --- | --- | --- | --- | --- | --- | --- | --- | --- | --- | --- | --- | --- | --- | --- | --- | --- |
| OC(Cn1cncn1)(Cn1cncn1)c1ccc(F)cc1F [Fluconazole] | > 2050 µg/mL | > 2050 µg/mL | > 2050 µg/mL | > 2050 µg/mL | > 2050 µg/mL | > 2050 µg/mL | > 2050 µg/mL | > 2050 µg/mL | > 2050 µg/mL | > 2050 µg/mL | > 2050 µg/mL | > 2050 µg/mL | – | – | – | MIC [9]: > 2050 µg/mL; MIC's of drug needed to inhibit the growth of organism [13]: 2048 µg/mL; MIC [13]: > 2050 µg/mL |
| Cc1ncc([N+](=O)[O-])n1CCO [Metronidazole] | > 32 µg/mL | 2 µg/mL (≈ 11.7 µM) | > 32 µg/mL | – | 1 µg/mL (≈ 5.84 µM) | 1 µg/mL (≈ 5.84 µM) | 0.5 µg/mL (≈ 2.92 µM) | 4 µg/mL (≈ 23.4 µM) | – | 1 µg/mL (≈ 5.84 µM) | – | 0.5 µg/mL (≈ 2.92 µM) | 1 µg/mL (≈ 5.84 µM) | 0.5 µg/mL | – | MIC's of drug needed to inhibit the growth of organism [14]: 1 µg/mL |
| Clc1ccc(COC(Cn2ccnc2)c2ccc(Cl)cc2Cl)c(Cl)c1 (stereo not shown) [Miconazole] | > 128 µg/mL | 128 µg/mL (≈ 308 µM) | > 128 µg/mL | 64 µg/mL (≈ 154 µM) | 64 µg/mL (≈ 154 µM) | 32 µg/mL (≈ 76.9 µM) | > 128 µg/mL | 8 µg/mL (≈ 19.2 µM) | – | 128 µg/mL (≈ 308 µM) | – | 64 µg/mL (≈ 154 µM) | – | – | – | MIC's of drug needed to inhibit the growth of organism [11]: 64 µg/mL |
| CC(C)N1CCN(c2ccc(OCC3COC(Cn4cncn4)(c4ccc(Cl)cc4Cl)O3)cc2)CC1 (stereo not shown) [Terconazole] | 512 µg/mL (≈ 962 µM) | 256 µg/mL (≈ 481 µM) | 512 µg/mL (≈ 962 µM) | 64 µg/mL (≈ 120 µM) | 128 µg/mL (≈ 240 µM) | 256 µg/mL (≈ 481 µM) | 256 µg/mL (≈ 481 µM) | 256 µg/mL (≈ 481 µM) | 256 µg/mL (≈ 481 µM) | 256 µg/mL (≈ 481 µM) | 256 µg/mL (≈ 481 µM) | 128 µg/mL (≈ 240 µM) | 256 µg/mL (≈ 481 µM) | – | 256 µg/mL | – |
| CCS(=O)(=O)CCn1c([N+](=O)[O-])cnc1C [Tinidazole] | > 128 µg/mL | 1 µg/mL (≈ 4.04 µM) | > 128 µg/mL | 2 µg/mL (≈ 8.09 µM) | 0.5 µg/mL (≈ 2.02 µM) | 0.65 µg/mL (≈ 2.63 µM) | 0.5 µg/mL (≈ 2.02 µM) | 1 µg/mL (≈ 4.04 µM) | 1 µg/mL (≈ 4.04 µM) | 1 µg/mL (≈ 4.04 µM) | – | – | 0.5 µg/mL (≈ 2.02 µM) | 0.25 µg/mL | 1 µg/mL | MIC's of drug needed to inhibit the growth of organism [3]: <128 µg/mL; MIC's of drug needed to inhibit the growth of organism [4]: 1 µg/mL |
